In patent publication US20240325394A1, “SALT AND CRYSTAL FORM OF NITROGEN-CONTAINING HETEROCYCLIC DERIVATIVE, PREPARATION METHOD THEREFOR AND APPLICATION THEREOF” (SHANGHAI HANSOH BIOMEDICAL CO., LTD., priority 2020, published 2024):
Where two headings read alike, the source gives them in different places.

Key:
[1] = Pharmacokinetics in mice (plasma) after oral administration; format: in vivo, Balb/c mice
Procedure: 5 g of Hydroxyethyl cellulose (HEC, CMC-Na, viscosity: 800-1200 Cps) was weighed, dissolved in 1000 mL of purified water, and 10 g of Tween 80 was added. The mixture was mixed well to form a clear solution.
The compounds of the embodiments were weighed and added into 4-mL glass bottles, respectively, 2.4 mL of the solution was added, and ultrasound was performed for 10 minutes to obtain a colorless clear solution with a concentration of 1 mg/mL.
Balb/C mice, males; PO, after overnight fasting, respectively, at a dose of 10 mg/kg, administered in a volume of 10 mL/kg.
Blood samples were collected before administration and 0.083 h, 0.25 h, 0.5 h, 1 h, 2 h, 4 h, 6 h and 8 h after administration, the blood was placed in EDTA-2K tube, centrifuged at 4° C. 6000 rpm for 6 min to separate plasma, and stored at −80° C.; food was consumed 4 hours after drug administration.

[2] = Plasma stability, human plasma; format: in vitro ADME
In short: (§1)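 Compound from a 10 μM working solution in 100 mM phosphate buffer was incubated at 37°C in anticoagulated plasma from each species, with propantheline as positive control. Aliquots taken at 0, 15, 30, 60, 90 and 120 min were quenched in acetonitrile with internal standard. Remaining compound was quantified by LC-MS/MS (positive ESI, MRM).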

[3] = Plasma stability, dog plasma; format: in vitro ADME; conditions: dog plasma, 37° C.
In short: as §1

[4] = molecular target: T1, CYP450 1A2 (Homo sapiens, UniProt P05177); assay: CYP enzyme single point inhibition test, human liver microsomes, 1A2; format: in vitro ADME; conditions: single point method
T1 construct: from tissue; host or cells: human liver microsomes
T1 sequence (P05177 1-516): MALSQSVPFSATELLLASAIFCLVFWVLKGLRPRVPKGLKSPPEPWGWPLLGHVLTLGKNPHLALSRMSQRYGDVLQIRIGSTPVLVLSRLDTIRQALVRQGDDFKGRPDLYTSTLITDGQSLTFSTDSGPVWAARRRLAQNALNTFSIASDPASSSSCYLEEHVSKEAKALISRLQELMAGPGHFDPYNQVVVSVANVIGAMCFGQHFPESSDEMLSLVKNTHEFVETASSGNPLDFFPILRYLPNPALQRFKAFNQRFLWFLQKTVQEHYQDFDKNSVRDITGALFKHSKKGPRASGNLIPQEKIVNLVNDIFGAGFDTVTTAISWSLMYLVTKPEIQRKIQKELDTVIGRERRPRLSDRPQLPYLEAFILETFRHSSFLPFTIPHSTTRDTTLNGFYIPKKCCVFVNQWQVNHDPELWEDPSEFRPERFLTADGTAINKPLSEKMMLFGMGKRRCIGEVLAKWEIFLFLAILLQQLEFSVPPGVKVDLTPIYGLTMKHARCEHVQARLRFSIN
Procedure: (§2) Using human liver microsomal incubation system, the inhibition of CYP450 enzyme subtypes by compounds was rapidly predicted by single point method.
(§3) 2.5 mM NADPH: 100 mM phosphate buffer was added to 4.165 mg of NADPH (reduced nicotinamide adenine dinucleotide phosphate) to 2 mL. 0.25 mg/mL microsome: 4 mL of 100 mM phosphate buffer was added to 50 μL of 20 mg/mL microsome and mixed well.
(§4) The embodiment compound to be tested was weighed and diluted to 10 mM with DMSO and then diluted to 100 µM with 100 mM phosphate buffer.
(§5) • 1. In a 96-well plate, 40 μL of liver microsomes, 10 μL of substrate, 10 μL of compound to be tested were pre-incubated for 3 min. • 2. 40 μL of NADPH was added. • 3. 300 μL of acetonitrile termination solution containing internal standard was added at 20 min. • 4. Centrifugal injection.

[5] = molecular target: T2, CYP450 2C9 (Homo sapiens, UniProt P11712); assay: CYP enzyme single point inhibition test, human liver microsomes, 2C9; format: in vitro ADME; conditions: single point method
T2 construct: from tissue; host or cells: human liver microsomes
Procedure: as §2, §3, §4, §5

[6] = molecular target: T3, CYP450 2C19 (Homo sapiens, UniProt P33261); assay: CYP enzyme single point inhibition test, human liver microsomes, 2C19; format: in vitro ADME; conditions: single point method
T3 construct: from tissue; host or cells: human liver microsomes
Procedure: as §2, §3, §4, §5

[7] = molecular target: T4, CYP450 3A4 (Homo sapiens, UniProt P08684); assay: CYP enzyme single point inhibition test, human liver microsomes, 3A4 (3A4-M, 3A4-T); format: in vitro ADME; conditions: single point method
T4 construct: from tissue; host or cells: human liver microsomes
Procedure: as §2, §3, §4, §5

[8] = Balb/c mice, PO 10 mg/kg, plasma
[9] = 3A4-M, read-out: IC50 (μM) 3A4-M
[10] = 3A4-T, read-out: IC50 (μM) 3A4-T

T4 sequence (P08684 whole entry): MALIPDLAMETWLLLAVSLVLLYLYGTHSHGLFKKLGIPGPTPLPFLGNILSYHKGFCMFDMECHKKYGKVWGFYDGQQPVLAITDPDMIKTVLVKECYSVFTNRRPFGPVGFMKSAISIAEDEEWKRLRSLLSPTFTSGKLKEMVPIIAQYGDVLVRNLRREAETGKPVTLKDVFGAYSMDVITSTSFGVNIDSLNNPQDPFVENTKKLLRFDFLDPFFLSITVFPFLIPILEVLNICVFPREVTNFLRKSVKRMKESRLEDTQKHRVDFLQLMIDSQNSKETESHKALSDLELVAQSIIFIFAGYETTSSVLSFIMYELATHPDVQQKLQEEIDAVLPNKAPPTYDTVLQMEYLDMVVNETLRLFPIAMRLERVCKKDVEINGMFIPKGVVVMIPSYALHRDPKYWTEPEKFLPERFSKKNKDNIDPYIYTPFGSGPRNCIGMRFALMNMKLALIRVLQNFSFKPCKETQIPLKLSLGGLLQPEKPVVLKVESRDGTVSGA
T3 sequence (P33261 whole entry): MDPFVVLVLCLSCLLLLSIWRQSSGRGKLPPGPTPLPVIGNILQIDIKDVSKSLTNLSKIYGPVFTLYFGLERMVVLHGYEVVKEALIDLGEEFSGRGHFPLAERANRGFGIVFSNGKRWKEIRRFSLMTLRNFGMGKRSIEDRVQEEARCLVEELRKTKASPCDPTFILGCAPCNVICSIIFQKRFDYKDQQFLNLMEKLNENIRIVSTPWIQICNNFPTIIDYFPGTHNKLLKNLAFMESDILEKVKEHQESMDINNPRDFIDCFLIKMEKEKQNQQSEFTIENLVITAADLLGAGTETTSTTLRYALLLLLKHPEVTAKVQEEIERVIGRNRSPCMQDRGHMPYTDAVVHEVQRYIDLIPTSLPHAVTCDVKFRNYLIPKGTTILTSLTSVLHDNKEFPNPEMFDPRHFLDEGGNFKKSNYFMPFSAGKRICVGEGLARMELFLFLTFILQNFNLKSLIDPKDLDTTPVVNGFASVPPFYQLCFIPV
T2 sequence (P11712 whole entry): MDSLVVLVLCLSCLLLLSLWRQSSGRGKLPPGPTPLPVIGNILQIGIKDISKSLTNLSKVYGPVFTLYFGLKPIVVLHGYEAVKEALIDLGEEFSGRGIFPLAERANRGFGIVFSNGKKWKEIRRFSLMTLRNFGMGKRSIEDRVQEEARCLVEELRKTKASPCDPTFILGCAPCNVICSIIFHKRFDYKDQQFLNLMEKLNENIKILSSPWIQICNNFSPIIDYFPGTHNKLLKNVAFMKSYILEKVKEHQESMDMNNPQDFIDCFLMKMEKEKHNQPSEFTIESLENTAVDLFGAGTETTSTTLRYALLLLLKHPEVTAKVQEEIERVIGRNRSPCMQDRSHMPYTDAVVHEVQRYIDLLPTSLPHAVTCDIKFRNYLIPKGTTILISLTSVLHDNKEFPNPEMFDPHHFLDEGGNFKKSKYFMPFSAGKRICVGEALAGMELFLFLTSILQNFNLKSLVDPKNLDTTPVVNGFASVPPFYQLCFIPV

Row | Compound | Residual rate (%) 0 min [3] [%] | Residual rate (%) 15 min [3] [%] | Residual rate (%) 30 min [3] [%] | Residual rate (%) 60 min [3] [%] | Residual rate (%) 120 min [3] [%] | IC50 [4] [µM] | IC50 [5] [µM] | IC50 [6] [µM] | IC50 [7, 9] [µM] | IC50 [7, 10] [µM] | further results
1 | P-4-((2S,5R)-4-acryloyl-2,5-dimethylpiperazin-1-yl)-6-fluoro-7-(2-fluoro-6-hydroxyphenyl)-1-(2-isopropyl-4-(methylthio)pyridin-3-yl)pyrido[2,3-d]pyrimidin-2(1H)-one [Embodiment 2-1] | 100.00 | 97.87 | 96.23 | 92.42 | 85.48 | > 100 | 84.6 | > 100 | 19 | > 100 | AUC0-∞ [1, 8]: 1373 ng·h/mL; Cmax [1, 8]: 1823 ng/mL; MRT [1, 8]: 42 min; T1/2 [1, 8]: 36 min; Tmax [1, 8]: 15 min; Residual rate (%) 0 min ([2]; human plasma, 37° C.): 100.00%; Residual rate (%) 15 min ([2]; human plasma, 37° C.): 97.39%; Residual rate (%) 30 min ([2]; human plasma, 37° C.): 98.79%; Residual rate (%) 60 min ([2]; human plasma, 37° C.): 94.50%; Residual rate (%) 120 min ([2]; human plasma, 37° C.): 87.91%
2 | C=CC(=O)N1C[C@H](C)N(c2nc(=O)n(-c3c(SC)ccnc3C(C)C)c3nc(-c4c(N)ccc(Cl)c4F)c(Cl)cc23)C[C@H]1C (atropisomer, axis not shown) [Embodiment 13-1, P-4-((2S,5R)-4-Acryloyl-2,5-dimethylpiperazin-1-yl)-7-(6-amino-3-chloro-2-fluorophenyl)-6-chloro-1-(2-isopropyl-4-(methylthio)pyridin-3-yl)pyrido[2,3-d]pyrimidin-2(1H)-one] | 100.00 | 97.71 | 96.32 | 94.86 | 92.49 | 66.7 | 58.8 | 28.8 | 4.7 | 9.1 | half-life ([1]; male, Balb/c, mouse, in vivo, po, 10 mg/kg): 60 min; Residual rate (%) 0 min ([2]; human, 0.5 μM): 100.00%; Residual rate (%) 15 min ([2]; human, 0.5 μM): 102.34%; Residual rate (%) 30 min ([2]; human, 0.5 μM): 100.28%; Residual rate (%) 60 min ([2]; human, 0.5 μM): 90.27%; Residual rate (%) 120 min ([2]; human, 0.5 μM): 87.22%
